In ChEMBL document CHEMBL6153019, “A series of indole-derived γ-hydroxy propiolate esters as potent anti-inflammatory agents: Design, synthesis, in-vitro and in-vivo biological studies” (Eur J Med Chem, 2024):
Calls of active or inactive are those of the source. No cut-off for these calls is given here.

Tests used:
Mus musculus [1] = assay: Anti-inflammatory activity against female Kunming mouse model xylene-induced auricle edema assessed as inhibition of ear swelling at 100 mg/kg, IP measured after 1 hr relative to control; type: functional; design: scale not given: the % may be the effect or the level left
RAW264.7 [2] = assay: Anti-inflammatory activity against LPS-Induced mouse RAW264.7 cells assessed as inhibition of Nitric oxide release at 10 uM measured after 18 hrs by Griess reagent assay relative to control; type: functional; design: Activity: scale not given: the % may be the effect or the level left; conditions: for inhibition at 10 µM: Mus musculus, RAW264.7
[3] = Cytotoxicity against mouse RAW264.7 cells assessed as cell survival at 10 uM preincubated for 4 hrs followed by compound addition and measured after 20 hrs by MTT assay relative to control; type: toxicity, cell-based; conditions: read-out: Survival
RAW264.7 [4] = assay: Anti-inflammatory activity against LPS-Induced mouse RAW264.7 cells assessed as inhibition of PGF1 production at 1 uM incubated for 24 hrs by ELISA method relative to control; type: functional
RAW264.7 [5] = assay: Anti-inflammatory activity against LPS-Induced mouse RAW264.7 cells assessed as inhibition of PGE2 production at 1uM measured after 24 hrs by ELISA method; type: functional
RAW264.7 [6] = assay: Anti-inflammatory activity against LPS-Induced mouse RAW264.7 cells assessed as inhibition of PGF1 production at 5 uM incubated for 24 hrs by ELISA method relative to control; type: functional
RAW264.7 [7] = assay: Anti-inflammatory activity against LPS-Induced mouse RAW264.7 cells assessed as inhibition of PGE2 production at 5 uM measured after 24 hrs by ELISA method; type: functional, cell-based
RAW264.7 [8] = assay: Anti-inflammatory activity against LPS-Induced mouse RAW264.7 cells assessed as inhibition of COX-2 at 5 uM incubated for 24 hrs by ELISA method relative to control; type: functional
RAW264.7 [9] = assay: Anti-inflammatory activity against LPS-Induced mouse RAW264.7 cells assessed as inhibition of TXB-2 release at 1 uM incubated for 24 hrs by LT determination assay relative to control; type: functional
RAW264.7 [10] = assay: Antiproliferative activity against mouse RAW264.7 cells assessed as tumor growth inhibition at 10 uM preincubated for 4 hrs followed by compound addition and measured after 20 hrs by MTT assay; type: functional, cell-based
[11] = Cytotoxicity against mouse RAW264.7 cells assessed as cell survival at 5 uM preincubated for 4 hrs followed by compound addition and measured after 20 hrs by MTT assay relative to control; type: toxicity, cell-based; conditions: read-out: Survival
RAW264.7 [12] = assay: Anti-inflammatory activity against LPS-Induced mouse RAW264.7 cells assessed as inhibition of Nitric oxide release at 1 uM measured after 18 hrs by Griess reagent assay; type: functional, cell-based
RAW264.7 [13] = assay: Anti-inflammatory activity against LPS-Induced mouse RAW264.7 cells assessed as inhibition of COX-2 expression level at 5 uM incubated for 24 hrs by ELISA method relative to control; type: functional
Mus musculus [14] = assay: Anti-inflammatory activity against female Kunming mouse model xylene-induced auricle edema assessed as inhibition rate of ear swelling measured after 1 hr; type: functional, organism-based
RAW264.7 [15] = assay: Anti-inflammatory activity against LPS-Induced mouse RAW264.7 cells assessed as inhibition of LT release at 5 uM incubated for 24 hrs by LT determination assay relative to control; type: functional
Mus musculus [16] = assay: Anti-inflammatory activity against female Kunming mouse model xylene-induced auricle edema assessed as inhibition of ear swelling at 50 mg/kg, ip measured after 1 hr relative to control; type: functional; design: scale not given: the % may be the effect or the level left
RAW264.7 [17] = assay: Anti-inflammatory activity against LPS-Induced mouse RAW264.7 cells assessed as inhibition of Nitric oxide release at 1 uM measured after 18 hrs by Griess reagent assay relative to control; type: functional
RAW264.7 [18] = assay: Anti-inflammatory activity against LPS-Induced mouse RAW264.7 cells assessed as inhibition of LT release at 1 uM incubated for 24 hrs by LT determination assay relative to control; type: functional
RAW264.7 [19] = assay: Anti-inflammatory activity against LPS-Induced mouse RAW264.7 cells assessed as increase inhibition of PGE2 production measured after 24 hrs by ELISA method; type: functional, cell-based
RAW264.7 [20] = assay: Anti-inflammatory activity against LPS-Induced mouse RAW264.7 cells assessed as inhibition in COX-2 expression at 1uM incubated for 24 hrs by ELISA method; type: functional, cell-based
RAW264.7 [21] = assay: Anti-inflammatory activity against LPS-Induced mouse RAW264.7 cells assessed as inhibition of PGE2 production at 10 uM measured after 24 hrs by ELISA method; type: functional
RAW264.7 [22] = assay: Anti-inflammatory activity against LPS-Induced mouse RAW264.7 cells assessed as inhibition of TXB-2 release at 5 uM incubated for 24 hrs by LT determination assay relative to control; type: functional; design: scale not given: the % may be the effect or the level left
RAW264.7 [23] = assay: Anti-inflammatory activity against LPS-induced mouse RAW264.7 cells assessed as inhibition of COX-1 expression at 5 uM incubated for 24 hrs by ELISA method relative to control; type: functional
RAW264.7 [24] = assay: Anti-inflammatory activity against LPS-induced mouse RAW264.7 cells assessed as downregulation of COX-1 protein expression level incubated for 24 hrs by ELISA method; type: functional, cell-based
RAW264.7 [25] = assay: Anti-inflammatory activity against LPS-Induced mouse RAW264.7 cells assessed as inhibition of COX-1 expression level at 5 uM incubated for 24 hrs by ELISA method relative to control; type: functional
RAW264.7 [26] = assay: Anti-inflammatory activity against LPS-induced mouse RAW264.7 cells assessed as inhibition of 5-LOX protein expression at 5 uM incubated for 24 hrs by ELISA method relative to control; type: functional

## Cc1ccc(-c2cc(C(F)(F)F)nn2-c2ccc(S(N)(=O)=O)cc2)cc1 [CELECOXIB]
Mus musculus [1]
  Activity: 93.23%

## COC(=O)C#CC1(O)C(=O)Nc2ccc(C)cc21 (configuration not stated)
RAW264.7 [2]
  Activity: 81.68%

## COC(=O)C#CC1(O)C(=O)N(C)c2cccc(Cl)c21 (configuration not stated)
[3]
  viability at 20 h, 10 µM: 86.7%

## COC(=O)C#CC1(O)C(=O)N(Cc2ccccc2)c2cc(Cl)ccc21 (configuration not stated)
RAW264.7 [4]
  inhibition at 1 µM: 16%
RAW264.7 [5]
  inhibition at 1 µM: 58%
RAW264.7 [6]
  inhibition at 5 µM: 16.6%
RAW264.7 [7]
  inhibition: Active
RAW264.7 [8]
  inhibition at 5 µM: 38.8%
RAW264.7 [9]
  inhibition at 1 µM: 25.4%
RAW264.7 [2]
  inhibition at 10 µM: 101%
RAW264.7 [10]
  Activity: Active
[11]
  viability at 20 h, 5 µM: 57.9%
RAW264.7 [12]
  inhibition: Active
Mus musculus [1]
  Activity: 85.43%
RAW264.7 [13]
  inhibition at 5 µM: 38.8%
Mus musculus [14]
  Activity: Dose-dependent-effect
RAW264.7 [15]
  inhibition at 5 µM: 11%
Mus musculus [16]
  Activity: 78.14%
RAW264.7 [17]
  inhibition at 1 µM: 50%
RAW264.7 [18]
  inhibition at 1 µM: 25.9%
RAW264.7 [19]
  inhibition: Dose-dependent-effect
RAW264.7 [20]
  inhibition: Active
RAW264.7 [21]
  inhibition at 10 µM: 94.5%
RAW264.7 [22]
  Activity: 21.14%

## COC(=O)C#CC1(O)C(=O)N(Cc2cccc3ccccc23)c2ccc(Cl)cc21 (configuration not stated)
[3]
  viability at 20 h, 10 µM: 99.9%

## COC(=O)C#CC1(O)C(=O)N(Cc2cccc3ccccc23)c2cc(Cl)ccc21 (configuration not stated)
RAW264.7 [23]
  inhibition at 5 µM: 35.3%
RAW264.7 [24]
  inhibition: Active
RAW264.7 [25]
  inhibition at 5 µM: 35.3%
RAW264.7 [8]
  inhibition at 5 µM: 42.6%
RAW264.7 [26]
  inhibition at 5 µM: 71.2%
RAW264.7 [2]
  inhibition at 10 µM: 102%
RAW264.7 [13]
  inhibition at 5 µM: 42.6%
